The values that follow come from US20190134005A1 (BioMarin Pharmaceutical Inc., priority 2016, published 2019).

As a reminder, the IC50 is the concentration needed to halve the response being measured.

One assay concerns the target T1, human CGT (Homo sapiens, UniProt Q16880).
T1 sequence (Q16880 21-541): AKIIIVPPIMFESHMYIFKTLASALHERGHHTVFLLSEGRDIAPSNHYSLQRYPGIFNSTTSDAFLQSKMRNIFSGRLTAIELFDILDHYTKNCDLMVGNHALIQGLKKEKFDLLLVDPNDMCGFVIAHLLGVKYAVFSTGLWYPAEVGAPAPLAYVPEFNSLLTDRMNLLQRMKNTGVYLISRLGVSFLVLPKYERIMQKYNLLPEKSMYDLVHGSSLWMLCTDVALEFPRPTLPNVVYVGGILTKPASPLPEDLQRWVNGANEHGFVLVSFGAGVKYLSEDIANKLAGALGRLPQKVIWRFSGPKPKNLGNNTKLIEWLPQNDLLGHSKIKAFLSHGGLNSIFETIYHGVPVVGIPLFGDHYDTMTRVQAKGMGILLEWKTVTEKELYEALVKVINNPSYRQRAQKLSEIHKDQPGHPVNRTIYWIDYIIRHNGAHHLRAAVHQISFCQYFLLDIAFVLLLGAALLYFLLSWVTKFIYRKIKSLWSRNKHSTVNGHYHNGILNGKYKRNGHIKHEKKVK
In words: Assay 1: CGT Enzymatic Assay (RapidFire/MS/MS, 0.01% Tween 80). In kind it is biochemical. As to conditions: Table 1, Compounds of Formula (I) and Formula (II); CGT enzymatic assay, C6-NBD-dihydro-galactosylceramide readout; read-out: IC50.
For the compound `N#Cc1ccc(N2C(=O)N(c3ccc(Cl)cc3)C(O)(c3cccc(OC(F)(F)F)c3)C23CCC3)cc1` (stereo not shown) [Compound 269, 4-(7-(4-chlorophenyl)-8-hydroxy-6-oxo-8-(3-(trifluoromethoxy)phenyl)-5,7-diazaspiro[3.4]octan-5-yl)benzonitrile], the IC50 was less than 1 µM.
`N#Cc1ccc(N2C(=O)N(c3ccc(C#N)cc3)C(O)(c3cccc(OC(F)(F)F)c3)C23CCC3)cc1` (stereo not shown) [Compound 293, 4,4′-(8-hydroxy-6-oxo-8-(3-(trifluoromethoxy)phenyl)-5,7-diazaspiro[3.4]octane-5,7-diyl)dibenzonitrile]: the IC50 is less than 1 µM.
As to `Cc1ccc(N2C(=O)N(c3ccc(Cl)cc3)C3(COC3)C2(O)c2cccc(C#N)c2)cc1` (stereo not shown) [Compound 298, 3-(5-(4-chlorophenyl)-8-hydroxy-6-oxo-7-(p-tolyl)-2-oxa-5,7-diazaspiro[3.4]octan-8-yl)benzonitrile], the half-maximal inhibitory concentration (IC50) was less than 1 µM.
Take `N#Cc1ccc(N2C(=O)N(c3ccc(C#N)cc3)C(O)(c3cccc(C#N)c3)C23CCC3)cc1` (stereo not shown) [Compound 294, 4,4′-(8-(3-cyanophenyl)-8-hydroxy-6-oxo-5,7-diazaspiro[3.4]octane-5,7-diyl)dibenzonitrile]: the IC50 was less than 1 µM.
On to `Cc1ccc(N2C(=O)N(c3ccc(C#N)cc3)C(O)(c3cccc(C#N)c3)C2(C)C)cc1` (stereo not shown) [Example 313, 3-(3-(4-cyanophenyl)-4-hydroxy-5,5-dimethyl-2-oxo-1-(p-tolyl)imidazolidin-4-yl)benzonitrile], for which the IC50 is less than 1 µM.
As for `CC1(C)N(c2ccc(Cl)cc2)C(=O)N(c2ccc(Cl)cc2)C1(O)c1cccc(C2COC2)c1` (stereo not shown) [Example 324-2, 1,3-bis(4-chlorophenyl)-4-hydroxy-5,5-dimethyl-4-(3-(oxetan-3-yl)phenyl)imidazolidin-2-one], the half-inhibitory concentration (IC50) fell in the range of 1 to 10 µM.

The same assay, now with this note: Table 1, Compounds of Formula (I) and Formula (II); CGT enzymatic assay; read-out: IC50.
Take `CCC[C@H]1N(c2ccc(Br)cc2)C(=O)N(c2ccc(Br)cc2)C1(O)c1cccc(C(F)(F)F)c1` (stereo partly drawn) [Compound 100-2, (5R)-1,3-bis(4-bromophenyl)-4-hydroxy-5-propyl-4-(3-(trifluoromethyl)phenyl)imidazolidin-2-one]: the IC50 is less than 1 µM.
Consider `CC[C@@H]1N(c2ccc(Br)cc2)C(=O)N(c2ccc(Br)cc2)C1(O)c1cccc(C)c1` (stereo partly drawn) [Compound 76-1, (5S)-1,3-bis(4-bromophenyl)-5-ethyl-4-hydroxy-4-(m-tolyl)imidazolidin-2-one], for which the IC50 was less than 1 µM.
Regarding `CCc1c(-c2cccc(C#N)c2)n(-c2ccc(F)cc2)c(=O)n1-c1ccc(F)cc1` [Compound 252, 3-(5-ethyl-1,3-bis(4-fluorophenyl)-2-oxo-2,3-dihydro-1H-imidazol-4-yl)benzonitrile], the IC50 lay in the range of 1 to 10 µM.
Same read-out and setting: as for `O=C1N(c2ccc(Br)cc2)CC(O)(c2cccnc2)N1c1ccc(Br)cc1` (stereo not shown) [Compound 52, 1,3-bis(4-bromophenyl)-4-hydroxy-4-(pyridin-3-yl)imidazolidin-2-one], the figure is 10 to 50 µM; as for `COc1cccc(C2(O)[C@@H](C)N(c3ccc(Br)cc3)C(=O)N2c2ccc(Br)cc2)c1` (stereo partly drawn) [Compound 71-2, (5R)-1,3-bis(4-bromophenyl)-4-hydroxy-4-(3-methoxyphenyl)-5-methylimidazolidin-2-one], less than 1 µM; as for `CC(C)c1c(-c2cccc(C#N)c2)n(-c2ccc(Cl)cc2)c(=O)n1-c1ccc(Cl)cc1` [Example 44, 3-(1,3-bis(4-chlorophenyl)-5-isopropyl-2-oxo-2,3-dihydro-1H-imidazol-4-yl)benzonitrile], less than 1 µM.
Regarding `Cc1c(-c2cccc(C#N)c2)n(-c2ccc(Cl)cc2)c(=O)n1-c1ccc(Cl)cc1` [Example 3], the IC50 is less than 1 µM.
On the same count and under the same terms, as for `CCCC1N(c2ccc(Cl)cc2)C(=O)N(c2ccc(Cl)cc2)C1(O)c1cccc(C#N)c1` (stereo not shown) [Compound 101, 3-(1,3-bis(4-chlorophenyl)-4-hydroxy-2-oxo-5-propylimidazolidin-4-yl)benzonitrile], the figure is less than 1 µM; as for `CC[C@H]1N(c2ccc(Br)cc2)C(=O)N(c2ccc(Br)cc2)C1(O)c1cccc(C)c1` (stereo partly drawn) [Compound 76-2, (5R)-1,3-bis(4-bromophenyl)-5-ethyl-4-hydroxy-4-(m-tolyl)imidazolidin-2-one], less than 1 µM.
Regarding `N#Cc1cccc(C2(O)[C@@H](CC3CC3)N(c3ccc(Cl)cc3)C(=O)N2c2ccc(Cl)cc2)c1` (single isomer, unassigned) [Compound 132-2], the IC50 was less than 1 µM.
`CC[C@@H]1N(c2ccc(Cl)cc2)C(=O)N(c2ccc(Cl)cc2)C1(O)c1cccc(C)c1` (stereo partly drawn) [Compound 75-1, (5S)-1,3-bis(4-chlorophenyl)-5-ethyl-4-hydroxy-4-(m-tolyl)imidazolidin-2-one]: the IC50 is less than 1 µM.
The same measure, in the same setting: as for `COc1cccc([C@@]2(C)C(O)N(c3ccc(Br)cc3)C(=O)N2c2ccc(Br)cc2)c1` (single isomer, unassigned) [Compound 126-1], the figure is greater than 50 µM; as for `CCOC(=O)C1(O)C(c2ccccc2)N(c2ccc(Cl)cc2)C(=O)N1c1ccc(Cl)cc1` (stereo not shown) [Example 217, ethyl 1,3-bis(4-chlorophenyl)-4-hydroxy-2-oxo-5-phenylimidazolidine-4-carboxylate], 1 to 10 µM.
Turning to `C[C@@]1(c2ccccc2)N(c2ccc(Cl)cc2)C(=O)N(c2ccc(Cl)cc2)[C@]1(O)c1ccccc1` [Compound 121-1, (4S,5S)-1,3-bis(4-chlorophenyl)-4-hydroxy-5-methyl-4,5-diphenylimidazolidin-2-one], the half-inhibitory concentration (IC50) is 10 to 50 µM.
`O=C1N(c2ccc(Br)cc2)C(=O)C(O)(c2ccc(Cl)s2)N1c1ccc(Br)cc1` (stereo not shown) [Example 197, 1,3-bis(4-bromophenyl)-5-(5-chlorothiophen-2-yl)-5-hydroxyimidazolidine-2,4-dione]: the IC50 lay within 10 to 50 µM.
For `CCCC1N(c2ccc(Cl)cc2)C(=O)N(c2ccc(Cl)cc2)C1(O)c1cccc(C)c1` (stereo not shown) [Compound 90, 1,3-bis(4-chlorophenyl)-4-hydroxy-5-propyl-4-(m-tolyl)imidazolidin-2-one], the IC50 is less than 1 µM.
On the same count and under the same terms, as for `CCC1N(c2ccc(Br)cc2)C(=O)N(c2ccc(Br)cc2)C1(O)c1cccc(OC(F)(F)F)c1` (stereo in doubt) [Compound 83-2, (5R)-1,3-bis(4-bromophenyl)-5-ethyl-4-hydroxy-4-(3-(trifluoromethoxy)phenyl)imidazolidin-2-one], the figure is less than 1 µM.
Turning to `CCC1N(c2ccc(F)cc2)C(=O)N(c2ccc(F)cc2)C1(O)c1cccc(OC(F)(F)F)c1` (stereo not shown) [Compound 131, 5-ethyl-1,3-bis(4-fluorophenyl)-4-hydroxy-4-(3-(trifluoromethoxy)phenyl)imidazolidin-2-one], the IC50 was less than 1 µM.
Regarding `CC[C@@H]1N(c2ccc(Cl)cc2)C(=O)N(c2ccc(Cl)cc2)C1(O)c1cccc(Cl)c1` (stereo partly drawn) [Compound 81-1, (5S)-4-(3-chlorophenyl)-1,3-bis(4-chlorophenyl)-5-ethyl-4-hydroxyimidazolidin-2-one], the half-maximal inhibitory concentration (IC50) is less than 1 µM.
`CCCC1N(c2ccc(Cl)cc2)C(=O)N(c2ccc(Cl)cc2)C1(O)CCC` (stereo not shown) [Compound 122, 1,3-bis(4-chlorophenyl)-4-hydroxy-4,5-dipropylimidazolidin-2-one]: the IC50 lay within 10 to 50 µM.
`O=C1N(c2ccc(Cl)cc2)C2(CCOC2)C(O)(c2cccc(OC(F)(F)F)c2)N1c1ccc(Cl)cc1` (stereo not shown) [Compound 234, 1,3-bis(4-chlorophenyl)-4-hydroxy-4-(3-(trifluoromethoxy)phenyl)-7-oxa-1,3-diazaspiro[4.4]nonan-2-one]: the IC50 was less than 1 µM.
Consider `CC(C)C1(c2cccc(OC(F)(F)F)c2)C(O)N(c2ccc(Cl)cc2)C(=O)N1c1ccc(Cl)cc1` (stereo not shown) [Example 220, 1,3-bis(4-chlorophenyl)-5-hydroxy-4-isopropyl-4-(3-(trifluoromethoxy)phenyl)imidazolidin-2-one], for which the IC50 was less than 1 µM.
On the same count and under the same terms, as for `CC(C)[C@H]1N(c2ccc(C(F)(F)F)cc2)C(=O)N(c2ccc(C(F)(F)F)cc2)C1(O)c1cccc(OC(F)(F)F)c1` (single isomer, unassigned) [Example 196-2], the figure is less than 1 µM.
For the compound `O=C1N(c2ccc(Br)cc2)C(=O)C(O)(c2ccc(OC3CCCCC3)cc2)N1c1ccc(Br)cc1` (stereo not shown) [Example 169, 1,3-bis(4-bromophenyl)-5-(4-(cyclohexyloxy)phenyl)-5-hydroxyimidazolidine-2,4-dione], the 50% inhibitory concentration (IC50) is greater than 50 µM.
Turning to `O=C1N(c2ccc(Br)cc2)C(O)[C@@](c2ccccc2)(C2CC2)N1c1ccc(Br)cc1` (stereo partly drawn) [Example 209-1, (4S)-1,3-bis(4-bromophenyl)-4-cyclopropyl-5-hydroxy-4-phenylimidazolidin-2-one], the IC50 was 10 to 50 µM.
`C[C@H]1N(c2ccc(Br)cc2)C(=O)N(c2ccc(Br)cc2)C1(O)c1cccc(Cl)c1` (stereo partly drawn) [Compound 73-2, (5R)-1,3-bis(4-bromophenyl)-4-(3-chlorophenyl)-4-hydroxy-5-methylimidazolidin-2-one]: the IC50 was less than 1 µM.
Take `C[C@H]1N(c2ccc(F)cc2)C(=O)N(c2ccc(F)cc2)C1(O)c1cccc(OC(F)(F)F)c1` (stereo partly drawn) [Compound 130-2, (5R)-1,3-bis(4-fluorophenyl)-4-hydroxy-5-methyl-4-(3-(trifluoromethoxy)phenyl)imidazolidin-2-one]: the IC50 was less than 1 µM.
Take `C[C@@H]1N(c2ccc(Br)cc2)C(=O)N(c2ccc(Br)cc2)C1(O)c1cccc(Cl)c1` (stereo partly drawn) [Compound 73-1, (5S)-1,3-bis(4-bromophenyl)-4-(3-chlorophenyl)-4-hydroxy-5-methylimidazolidin-2-one]: the IC50 was less than 1 µM.
